Experimental data published in patent US6734310B2, “Fluorescent marker” (FEW Chemicals GmbH, priority 2000, dated 2004).

Columns and labels:
[1] = VIS spectra of dye after coupling to a protein (aggregation in the protein conjugate); details: FIG. 1
[2] = protein conjugate vs free dye; cited from earlier work

Row | Compound | VIS spectrum curve shape (monomer / dimer band) [1] | decrease of fluorescence quantum yield of the protein conjugate compared with free, unconjugated dye [2]
1 | CC(C=CC1=[N+](CCCCCC(=O)O)c2ccc(S(=O)(=O)[O-])cc2C1(C)C)=CC=C1N(CCCCCC(=O)O)c2ccc(S(=O)(=O)[O-])cc2C1(C)C.[Na+] [Example 1, 1-(5-carboxypentyl)-2-[5-(l-(5-carboxypentyl)-1,3-dihydro-3,3-dimethyl-5-sulpho-2H-indole-2-ylidene)-3-methylpenta-1,3-dienyl]-3,3-dimethyl-5-sulpho-3H-indolium-inner Salt, Sodium Salt] | typical curve shape for a monomer | 
2 | CC(C=CC1=[N+](CCCCCC(=O)O)c2ccc(S(=O)(=O)[O-])cc2C1(C)C)=C1N(CCCCCC(=O)O)c2ccc(S(=O)(=O)[O-])cc2C1(C)C.[Na+] [Example 3, 1-(5-carboxypentyl)-2-[3-(1,3-dihydro-1-(5-carboxypentyl)-3,3-dimethyl-5-sulpho-2H-indole-2-ylidene)-3-methylprop-1-enyl]-3,3-dimethyl-5-sulpho-3H-indolium Hydroxide, Inner Salt, Sodium Salt] |  | around ¼
